The record followed here is article PMC7016291 (Acta Pharmaceutica Sinica. B, 2019).

Data set [1] concerns the target HIV-1 RT RNase H (Human immunodeficiency virus type 1 group M subtype B, UniProt P03366). Nature of the data set: HIV-1 RT RNase H inhibition. The format is biochemical.
Data set [2] has as its target WT HIV-1 RT (Human immunodeficiency virus type 1 group M subtype B, UniProt P03366). As to the kind of experiment: HIV-1 RT inhibition assay. The format is biochemical.
The test system of data set [3] is HIV-2 (ROD). Nature of the data set: Anti-HIV activity in MT-4 cells. As to conditions: Human immunodeficiency virus 2, MT4, read-out: EC50 ROD. Format: cell-based.
Data set [4] can be described thus: Cytotoxicity in uninfected MT-4 cells. Format: cell-based. The conditions noted are these: human, uninfected MT-4 cells.
Data set [5] concerns HIV-1 L100I. Nature of the data set: Anti-HIV-1 activity against mutant strain L100I in MT-4 cells. Format: cell-based. The conditions noted are these: Human immunodeficiency virus 1, MT4, read-out: EC50 L100I.
Data set [6] deals with HIV-1 E138K. Nature of the data set: Anti-HIV-1 activity against mutant strain E138K in MT-4 cells. The format is cell-based. The conditions noted are these: Human immunodeficiency virus 1, MT4, read-out: EC50 E138K.
The subject of data set [7] is HIV-1 K103N. As to the kind of experiment: Anti-HIV-1 activity against mutant strain K103N in MT-4 cells. The format is cell-based. As to conditions: Human immunodeficiency virus 1, MT4, read-out: EC50 K103N.
Data set [8] deals with HIV-1 Y188L. As to the kind of experiment: Anti-HIV-1 activity against mutant strain Y188L in MT-4 cells. As to conditions: Human immunodeficiency virus 1, MT4, read-out: EC50 Y188L. Format: cell-based.
For data set [9], the system named is HIV-1 RES056 (K103N/Y181C). Nature of the data set: Anti-HIV-1 activity against double mutant RES056 in MT-4 cells. The format is cell-based. As to conditions: Human immunodeficiency virus 1, MT4, read-out: EC50 RES056.
Data set [10] deals with HIV-1 F227L + V106A. As to the kind of experiment: Anti-HIV-1 activity against double mutant F227L + V106A in MT-4 cells. The format is cell-based. As to conditions: Human immunodeficiency virus 1, MT4, read-out: EC50 F227L + V106A.
The subject of data set [11] is HIV-1 Y181C. As to the kind of experiment: Anti-HIV-1 activity against mutant strain Y181C in MT-4 cells. As to conditions: Human immunodeficiency virus 1, MT4, read-out: EC50 Y181C. Format: cell-based.

One may read the IC50 as the concentration that inhibits the measured activity by half. Read a high IC50 as weaker potency in that assay. As a reminder, the EC50 is the concentration that produces a half-maximal response. One may read the CC50 as the concentration that lowers cell viability or growth by half. As for `Cc1cc(-c2ccc(C#N)cc2)cc(C)c1Oc1nc(Nc2ccc(C#N)cc2)nc(NC2CCOCC2)n1` [Compound 5b, 4ʹ-((4-((4-Cyanophenyl)amino)-6-((tetrahydro-2H-pyran-4-yl)amino)-1,3,5-triazin-2-yl)oxy)-3ʹ,5ʹ-dimethyl-[1,1ʹ-biphenyl]-4-carbonitrile], the values for the half-inhibitory concentration (IC50) in [1] and in data set [2] were over 1160 µM and 0.263 µM, respectively. The concentration giving a half-maximal response (EC50) in data set [3] worked out at 2.03 ± 0.94 µM. Also, the CC50 at 4 days in data set [4] is over 125 µM.

Regarding `Cc1cc(-c2ccc(C#N)cc2)cc(C)c1Oc1nc(NCC2CCOC2)nc(Nc2ccc(C#N)cc2)n1` (stereo not shown) [Compound 5c, 4ʹ-((4-((4-Cyanophenyl)amino)-6-(((tetrahydrofuran-3-yl)methyl)amino)-1,3,5-triazin-2-yl)oxy)-3ʹ,5ʹ-dimethyl-[1,1ʹ-biphenyl]-4-carbonitrile], the half-maximal inhibitory concentration (IC50) in data set [1] is over 1160 µM; in data set [2] it was 0.216 µM. Further, in data set [3], the EC50 amounted to 1.01 ± 0.21 µM. In data set [4], the CC50 at 4 days is over 125 µM.

For the compound `COC(=O)[C@@H]1CCCN1c1nc(Nc2ccc(C#N)cc2)nc(Oc2c(C)cc(-c3ccc(C#N)cc3)cc2C)n1` [Compound 5d, Methyl (4-((4ʹ-cyano-3,5-dimethyl-[1,1ʹ-biphenyl]-4-yl)oxy)-6-((4-cyanophenyl)-amino)-1,3,5-triazin-2-yl)-L-prolinate], the IC50 is over 1100 µM in data set [1] and 0.273 µM in [2]. Moreover, the EC50 in data set [3] was over 2.23 µM. The compound further came in with a CC50 at 4 days in data set [4] of 2.23 ± 1.09 µM.

As for `Cc1cc(-c2ccc(C#N)cc2)cc(C)c1Oc1nc(Nc2ccc(C#N)cc2)nc(N2CCOCC2)n1` [Compound 5e, 4ʹ-((4-((4-Cyanophenyl)amino)-6-morpholino-1,3,5-triazin-2-yl)oxy)-3ʹ,5ʹ-dimeth-yl-[1,1ʹ-biphenyl]-4-carbonitrile], the IC50 was 659 µM in data set [1] and 0.195 µM in data set [2]. In [1], the “activity against RNase H” value is listed as “slight activity”. For the same compound, in data set [3], the 50% effective concentration (EC50) was determined as 3.61 ± 0.55 µM. Also, the cytotoxic concentration (CC50) at 4 days in [4] was over 125 µM.

Take `Cc1cc(-c2ccc(C#N)cc2)cc(C)c1Oc1nc(Nc2ccc(C#N)cc2)nc(N2CCNCC2)n1` [Compound 5f, 4ʹ-((4-((4-Cyanophenyl)amino)-6-(piperazin-1-yl)-1,3,5-triazin-2-yl)oxy)-3ʹ,5ʹ-dimethyl-[1,1ʹ-biphenyl]-4-carbonitrile]: the IC50 is over 1190 µM in data set [1] and 0.482 µM in [2]. Besides, the half-maximal effective concentration (EC50) in [3] is over 9.8 µM. The compound further had a cytotoxic concentration (CC50) at 4 days in data set [4] of 9.8 ± 7.31 µM.

Consider `Cc1cc(-c2ccc(C#N)cc2)cc(C)c1Oc1nc(Nc2ccc(C#N)cc2)nc(N2CCCC2CO)n1` (stereo not shown) [Compound 5g, 4ʹ-((4-((4-Cyanophenyl)amino)-6-(2-(hydroxymethyl)pyrrolidin-1-yl)-1,3,5-triazin-2-yl)oxy)-3ʹ,5ʹ-dimethyl-[1,1ʹ-biphenyl]-4-carbonitrile], for which the IC50 was over 1160 µM in [1] and 0.28 µM in data set [2]. For the same compound, in [3], the 50% effective concentration (EC50) was found to be 1.56 ± 0.49 µM. Besides, the CC50 at 4 days in data set [4] is over 125 µM.

Turning to `Cc1cc(-c2ccc(C#N)cc2)cc(C)c1Oc1nc(Nc2ccc(C#N)cc2)nc(N2CCC(O)CC2)n1` [Compound 5i, 4ʹ-((4-((4-Cyanophenyl)amino)-6-(4-hydroxypiperidin-1-yl)-1,3,5-triazin-2-yl)-oxy)-3ʹ,5ʹ-dimethyl-[1,1ʹ-biphenyl]-4-carbonitrile], the figures for the 50% inhibitory concentration (IC50) in data set [1] and in data set [2] were 500 µM and 0.282 µM, respectively. Besides, the “activity against RNase H” value in data set [1] is reported as “slight activity”. Moreover, the EC50 in [3] worked out at 1.51 ± 0.26 µM. The compound further showed a CC50 at 4 days in data set [4] of 14.9 ± 7.89 µM.

In the case of `Cc1cc(-c2ccc(C#N)cc2)cc(C)c1Oc1nc(NCCN2CCN(C)CC2)nc(Nc2ccc(C#N)cc2)n1` [Compound 5k, 4ʹ-((4-((4-Cyanophenyl)amino)-6-((2-(4-methylpiperazin-1-yl)ethyl)amino)-1,3,5-triazin-2-yl)oxy)-3ʹ,5ʹ-dimethyl-[1,1ʹ-biphenyl]-4-carbonitrile], the results for the half-maximal inhibitory concentration (IC50) in data set [1] and in data set [2] were over 1070 µM and 0.658 µM, respectively. Further, the 50% effective concentration (EC50) in data set [3] is over 14.1 µM. The half-maximal cytotoxic concentration (CC50) at 4 days in data set [4] was determined as 14.1 ± 3.47 µM.

In the case of `Cc1cc(-c2ccc(C#N)cc2)cc(C)c1Nc1nc(Nc2ccc(C#N)cc2)nc(NC2CC2)n1` [Compound 6a, 4ʹ-((4-((4-Cyanophenyl)amino)-6-(cyclopropylamino)-1,3,5-triazin-2-yl)amino)-3ʹ,5ʹ-dimethyl-[1,1ʹ-biphenyl]-4-carbonitrile], the IC50 in data set [1] was over 1270 µM; in [2], 0.0741 µM. Further, in [3], the EC50 worked out at 26.5 µM. In addition, in data set [4], the half-maximal cytotoxic concentration (CC50) at 4 days was over 125 µM.

As for `Cc1cc(-c2ccc(C#N)cc2)cc(C)c1Nc1nc(Nc2ccc(C#N)cc2)nc(NC2CCOCC2)n1` [Compound 6c, 4ʹ-((4-((4-Cyanophenyl)amino)-6-((tetrahydro-2H-pyran-4-yl)amino)-1,3,5-triazin-2-yl)amino)-3ʹ,5ʹ-dimethyl-[1,1ʹ-biphenyl]-4-carbonitrile], the half-maximal inhibitory concentration (IC50) in [1] is over 1160 µM; in [2] it was 0.246 µM. The EC50 in [3] amounted to 40 µM. For the same compound, the CC50 at 4 days in data set [4] was over 125 µM.

Take `Cc1cc(-c2ccc(C#N)cc2)cc(C)c1Nc1nc(NCC2CCOCC2)nc(Nc2ccc(C#N)cc2)n1` [Compound 6d, 4ʹ-((4-((4-Cyanophenyl)amino)-6-(((tetrahydro-2H-pyran-4-yl)methyl)amino)-1,3,5-triazin-2-yl)amino)-3ʹ,5ʹ-dimethyl-[1,1ʹ-biphenyl]-4-carbonitrile]: the results for the concentration for half-maximal inhibition (IC50) in data set [1] and in [2] were over 1130 µM and 0.241 µM, respectively. For the same compound, the EC50 in data set [3] turned out to be 13.8 µM. Moreover, in [4], the CC50 at 4 days was over 125 µM.

Consider `COC(=O)[C@@H]1CCCN1c1nc(Nc2ccc(C#N)cc2)nc(Nc2c(C)cc(-c3ccc(C#N)cc3)cc2C)n1` [Compound 6f, Methyl (4-((4ʹ-cyano-3,5-dimethyl-[1,1ʹ-biphenyl]-4-yl)amino)-6-((4-cyanophenyl)amino)-1,3,5-triazin-2-yl)-L-prolinate], for which the IC50 in data set [1] was over 1100 µM; in data set [2], 0.253 µM. Moreover, in data set [3], the half-maximal effective concentration (EC50) was over 125 µM. The cytotoxic concentration (CC50) at 4 days in data set [4] is over 125 µM.

For the compound `Cc1cc(-c2ccc(C#N)cc2)cc(C)c1Nc1nc(Nc2ccc(C#N)cc2)nc(N2CCOCC2)n1` [Compound 6g, 4ʹ-((4-((4-Cyanophenyl)amino)-6-morpholino-1,3,5-triazin-2-yl)amino)-3ʹ,5ʹ-dimethyl-[1,1ʹ-biphenyl]-4-carbonitrile], the IC50 was over 1190 µM in data set [1] and 0.137 µM in [2]. The EC50 in [3] was found to be 39.9 µM. In addition, in [4], the CC50 at 4 days is over 125 µM.

With `Cc1cc(-c2ccc(C#N)cc2)cc(C)c1Nc1nc(Nc2ccc(C#N)cc2)nc(N2CCNCC2)n1` [Compound 6h, 4ʹ-((4-((4-Cyanophenyl)amino)-6-(piperazin-1-yl)-1,3,5-triazin-2-yl)amino)-3ʹ,5ʹ-dimethyl-[1,1ʹ-biphenyl]-4-carbonitrile], the concentration for half-maximal inhibition (IC50) was over 1200 µM in data set [1] and 0.341 µM in data set [2]. Moreover, the EC50 in [3] was over 9.24 µM. Also, the half-maximal cytotoxic concentration (CC50) at 4 days in data set [4] was 9.24 ± 5.5 µM.

Turning to `Cc1cc(-c2ccc(C#N)cc2)cc(C)c1Nc1nc(Nc2ccc(C#N)cc2)nc(N2CCCC2CO)n1` (stereo not shown) [Compound 6j, 4ʹ-((4-((4-Cyanophenyl)amino)-6-(2-(hydroxymethyl)pyrrolidin-1-yl)-1,3,5-triazin-2-yl)amino)-3ʹ,5ʹ-dimethyl-[1,1ʹ-biphenyl]-4-carbonitrile], the results for the IC50 in data set [1] and in data set [2] were over 1160 µM and 0.157 µM, respectively. Also, the concentration giving a half-maximal response (EC50) in data set [3] amounted to 15.7 µM. The 50% cytotoxic concentration (CC50) at 4 days in data set [4] was 62.9 ± 7.99 µM.

With `Cc1cc(-c2ccc(C#N)cc2)cc(C)c1Nc1nc(Nc2ccc(C#N)cc2)nc(N2CCC(O)CC2)n1` [Compound 6l, 4ʹ-((4-((4-Cyanophenyl)amino)-6-(4-hydroxypiperidin-1-yl)-1,3,5-triazin-2-yl)-amino)-3ʹ,5ʹ-dimethyl-[1,1ʹ-biphenyl]-4-carbonitrile], the IC50 in data set [1] was over 1160 µM; in data set [2], 0.223 µM. Besides, in data set [3], the EC50 was over 5.71 µM. Besides, half-maximal cytotoxicity in data set [4] (CC50 at 4 days) was put at 5.71 ± 3.93 µM.

Turning to `Cc1cc(-c2ccc(C#N)cc2)cc(C)c1Nc1nc(NCCN2CCOCC2)nc(Nc2ccc(C#N)cc2)n1` [Compound 6m, 4ʹ-((4-((4-Cyanophenyl)amino)-6-((2-morpholinoethyl)amino)-1,3,5-triazin-2-yl)-amino)-3ʹ,5ʹ-dimethyl-[1,1ʹ-biphenyl]-4-carbonitrile], the IC50 in data set [1] was over 995 µM; in [2], 0.176 µM. Moreover, in data set [3], the EC50 was over 13.9 µM. Besides, the half-maximal cytotoxic concentration (CC50) at 4 days in [4] amounted to 13.9 ± 10.7 µM.

As for `Cc1cc(-c2ccc(C#N)cc2)cc(C)c1Nc1nc(NCCN2CCN(C)CC2)nc(Nc2ccc(C#N)cc2)n1` [Compound 6n, 4ʹ-((4-((4-Cyanophenyl)amino)-6-((2-(4-methylpiperazin-1-yl)ethyl)amino)-1,3,5-triazin-2-yl)amino)-3ʹ,5ʹ-dimethyl-[1,1ʹ-biphenyl]-4-carbonitrile], the half-maximal inhibitory concentration (IC50) in data set [1] was over 1070 µM; in data set [2], 0.156 µM. Also, the EC50 in data set [3] is over 2.34 µM. The compound further had a CC50 at 4 days in data set [4] of 2.34 ± 0.64 µM.

On to `Cc1ccnc2c1NC(=O)c1cccnc1N2C1CC1` [NVP, nevirapine, reference compound], for which the 50% effective concentration (EC50) in data set [5] is 0.46 ± 0.11 µM; in [6] it was 0.057 ± 0.006 µM; in data set [7], 3.19 ± 3.9 µM; in [8] it was over 4 µM; in data set [9] it was over 4 µM; in data set [10], over 4 µM. In data set [11], the EC50 is over 4 µM. In [4], the CC50 at 4 days is over 4 µg/mL.
